This is an account of results in patent US7452908B2, “Amide derivatives” (Banyu Pharmaceutical Co., Ltd., priority 1999, dated 2008).

Experiment [1] has as its target T1, human m1 muscarinic acetylcholine receptor expressed in CHO cells (Homo sapiens, UniProt P11229).
T1 construct: purchased Receptor Biology, Inc; host or cells: CHO cells
T1 sequence (P11229 1-460): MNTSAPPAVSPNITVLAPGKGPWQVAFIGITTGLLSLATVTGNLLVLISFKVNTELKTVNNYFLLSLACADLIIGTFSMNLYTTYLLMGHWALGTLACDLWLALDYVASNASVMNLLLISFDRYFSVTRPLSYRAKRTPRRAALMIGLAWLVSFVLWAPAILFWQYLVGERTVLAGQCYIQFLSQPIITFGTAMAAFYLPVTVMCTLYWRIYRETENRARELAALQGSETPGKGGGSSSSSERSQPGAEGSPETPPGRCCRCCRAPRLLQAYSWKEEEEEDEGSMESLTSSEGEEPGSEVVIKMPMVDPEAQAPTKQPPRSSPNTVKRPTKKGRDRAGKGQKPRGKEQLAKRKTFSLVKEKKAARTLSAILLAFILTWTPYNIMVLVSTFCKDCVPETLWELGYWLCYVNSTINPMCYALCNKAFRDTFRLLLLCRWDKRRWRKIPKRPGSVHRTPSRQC
Briefly: Inhibition of [3H]-N-methylscopolamine binding to muscarinic m1 receptor. Particulars: 0.2 nM [3H]-N-methylscopolamine. On the procedure:
(§1) These tests were performed according to a modification of the method of Hargreaves, et al. (Br. J. Pharmacol. 107: 494-501, 1992). Namely, muscarinic acetylcholine receptors of human m1, m2, m3, m4 and m5 expressed in CHO cells (Receptor Biology, Inc.) were incubated with 0.2 nM [^3H]-N-methylscopolamine (82Ci/mmol, New England Nuclear, Inc.) and a test compound to be tested in 0.5 ml of 50 mM Tris-HCl, 10 mM MgCl2, 1 mM EDTA solution (pH 7.4) for 120 minutes at room temperature (about 20-25° C.), followed by suction filtration over a glass filter (UniFilter plate-GF/C; Packard). Then the filter was washed four times with 1 ml of ice-cold Tris-HCl buffer and dried at 50° C. for an hour. After adding a scintillator (Microscinti 0; Packard), the radioactivity of [^3H]-N-methylscopolamine binding to the filter was counted with a microplate scintillation counter (TopCount™; Packard). Non-specific receptor binding of [^3H]-N-methylscopolamine was measured by adding 1 μM N-methylscopolamine.

Experiment [2] has as its target T2, human m3 muscarinic acetylcholine receptor expressed in CHO cells (Homo sapiens, UniProt P20309).
T2 construct: purchased Receptor Biology, Inc; host or cells: CHO cells
Briefly: Inhibition of [3H]-N-methylscopolamine binding to muscarinic m3 receptor. Particulars: for Ki: human m3 in CHO cells, 0.2 nM [3H]-N-methylscopolamine; for Selectivity m1/m3: ratio of Ki m1 to Ki m3; for Selectivity m2/m3: ratio of Ki m2 to Ki m3; for Selectivity m4/m3: ratio of Ki m4 to Ki m3; for Selectivity m5/m3: ratio of Ki m5 to Ki m3. On the procedure:
as §1

Experiment [3] has as its target T3, human m2 muscarinic acetylcholine receptor expressed in CHO cells (Homo sapiens, UniProt P08172).
T3 construct: purchased Receptor Biology, Inc; host or cells: CHO cells
T3 sequence (P08172 1-466): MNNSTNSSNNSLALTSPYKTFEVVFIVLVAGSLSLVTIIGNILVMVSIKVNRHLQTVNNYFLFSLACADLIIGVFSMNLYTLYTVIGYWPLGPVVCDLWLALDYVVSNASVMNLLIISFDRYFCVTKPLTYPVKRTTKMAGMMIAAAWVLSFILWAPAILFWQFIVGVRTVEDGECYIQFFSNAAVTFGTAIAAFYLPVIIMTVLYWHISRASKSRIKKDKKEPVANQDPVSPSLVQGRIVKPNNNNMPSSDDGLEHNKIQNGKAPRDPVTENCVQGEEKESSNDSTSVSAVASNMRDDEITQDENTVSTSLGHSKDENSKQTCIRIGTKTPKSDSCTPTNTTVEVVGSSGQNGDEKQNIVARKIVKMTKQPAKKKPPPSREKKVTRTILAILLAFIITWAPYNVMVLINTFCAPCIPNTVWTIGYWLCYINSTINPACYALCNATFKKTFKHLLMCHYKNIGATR
The experiment is described as follows: Inhibition of [3H]-N-methylscopolamine binding to muscarinic m2 receptor. Particulars: 0.2 nM [3H]-N-methylscopolamine. On the procedure:
as §1

Experiment [4] addresses T4, human m4 muscarinic acetylcholine receptor expressed in CHO cells (Homo sapiens, UniProt P08173).
T4 construct: purchased Receptor Biology, Inc; host or cells: CHO cells
T4 sequence (P08173 1-479): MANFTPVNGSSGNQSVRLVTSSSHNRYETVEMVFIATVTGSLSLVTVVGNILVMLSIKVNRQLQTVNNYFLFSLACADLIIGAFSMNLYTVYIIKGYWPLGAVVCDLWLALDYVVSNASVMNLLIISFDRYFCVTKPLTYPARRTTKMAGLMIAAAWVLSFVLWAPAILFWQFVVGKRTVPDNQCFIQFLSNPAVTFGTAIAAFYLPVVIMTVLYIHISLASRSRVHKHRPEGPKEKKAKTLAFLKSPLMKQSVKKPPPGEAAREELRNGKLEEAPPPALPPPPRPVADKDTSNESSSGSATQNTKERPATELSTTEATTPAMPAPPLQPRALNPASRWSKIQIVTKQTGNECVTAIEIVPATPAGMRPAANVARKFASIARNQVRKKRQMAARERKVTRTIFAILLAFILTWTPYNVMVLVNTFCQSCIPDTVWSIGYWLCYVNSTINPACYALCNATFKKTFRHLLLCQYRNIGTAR
The experiment is described as follows: Inhibition of [3H]-N-methylscopolamine binding to muscarinic m4 receptor. Particulars: 0.2 nM [3H]-N-methylscopolamine. The method, then:
as §1

Experiment [5] deals with T5, human m5 muscarinic acetylcholine receptor expressed in CHO cells (Homo sapiens, UniProt P08912).
T5 construct: purchased Receptor Biology, Inc; host or cells: CHO cells
T5 sequence (P08912 1-532): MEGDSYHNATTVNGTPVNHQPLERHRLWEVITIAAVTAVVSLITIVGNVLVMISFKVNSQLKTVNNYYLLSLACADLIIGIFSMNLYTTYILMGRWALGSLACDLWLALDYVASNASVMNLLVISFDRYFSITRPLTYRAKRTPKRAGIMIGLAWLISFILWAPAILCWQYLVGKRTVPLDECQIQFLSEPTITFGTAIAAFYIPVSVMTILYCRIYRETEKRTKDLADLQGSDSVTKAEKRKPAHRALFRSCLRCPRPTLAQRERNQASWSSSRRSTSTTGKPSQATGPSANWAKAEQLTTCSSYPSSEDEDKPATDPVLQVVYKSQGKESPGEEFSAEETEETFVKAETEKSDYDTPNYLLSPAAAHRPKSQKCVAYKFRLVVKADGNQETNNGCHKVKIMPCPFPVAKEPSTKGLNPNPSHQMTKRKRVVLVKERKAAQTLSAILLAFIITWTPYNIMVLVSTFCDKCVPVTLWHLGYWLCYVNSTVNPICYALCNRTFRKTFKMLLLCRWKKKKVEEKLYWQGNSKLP
The experiment is described as follows: Inhibition of [3H]-N-methylscopolamine binding to muscarinic m5 receptor. Particulars: 0.2 nM [3H]-N-methylscopolamine. The method, then:
as §1

T2 sequence (P20309 whole entry): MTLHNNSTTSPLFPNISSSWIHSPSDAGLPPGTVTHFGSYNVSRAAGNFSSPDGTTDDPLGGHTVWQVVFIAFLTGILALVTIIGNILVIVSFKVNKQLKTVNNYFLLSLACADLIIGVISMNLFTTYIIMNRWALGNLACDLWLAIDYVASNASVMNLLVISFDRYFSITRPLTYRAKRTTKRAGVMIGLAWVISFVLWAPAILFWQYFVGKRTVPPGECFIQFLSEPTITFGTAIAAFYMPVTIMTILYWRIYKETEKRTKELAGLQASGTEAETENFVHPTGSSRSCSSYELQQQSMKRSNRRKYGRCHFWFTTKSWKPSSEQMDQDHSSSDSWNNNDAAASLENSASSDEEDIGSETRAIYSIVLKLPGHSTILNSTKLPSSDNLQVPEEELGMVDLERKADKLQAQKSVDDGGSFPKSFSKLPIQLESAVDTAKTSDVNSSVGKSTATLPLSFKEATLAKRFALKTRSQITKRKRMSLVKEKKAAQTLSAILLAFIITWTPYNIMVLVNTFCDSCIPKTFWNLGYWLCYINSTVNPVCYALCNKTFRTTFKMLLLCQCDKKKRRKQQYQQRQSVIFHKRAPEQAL

As for `CCCCCN1CCC[C@H](CNC(=O)CCNC(=O)CNC(=O)CC(c2ccccc2)(c2ccccc2)c2ccccc2)C1` [Example 6, N-{2-(3-{((3R)-1-pentyl-3-piperidyl)methyl}amino-3-oxopropyl)amino-2-oxoethyl}-3,3,3-triphenylpropanamide], in experiment [1], the affinity corresponds to a Ki of 860 nM. In experiment [2], affinity was put at a Ki of 1.8 nM, the “Selectivity m1/m3” value is on record as 480 times, the “Selectivity m2/m3” value was determined as 140 times and the “Selectivity m4/m3” value was 37 times. The “Selectivity m5/m3” value in experiment [2] was determined as 46 times. In experiment [3], this molecule had a Ki of 250 nM. In experiment [4], the inhibition constant Ki stood at 66 nM. In experiment [5], the Ki stood at 82 nM.

For `O=C(CCNC(=O)[C@H](Cc1c[nH]cn1)NC(=O)CC(c1ccccc1)(c1ccccc1)c1ccccc1)NC[C@H]1CCCN(CC2CCCCC2)C1` [Example 19, N-{(1S)-2-(3-{((3R)-1-cyclohexylmethyl-3-piperidyl)methyl}-amino-3-oxopropyl)amino-1-(1H-imidazol-4-ylmethyl)-2-oxoethyl}-3,3,3-triphenylpropanamide], the Ki in experiment [1] is 270 nM. For the same molecule, in experiment [2], the affinity corresponds to a Ki of 0.75 nM, the “Selectivity m1/m3” value is given as 360 times, the “Selectivity m2/m3” value was 40 times and the “Selectivity m4/m3” value worked out at 11 times. Moreover, the “Selectivity m5/m3” value in experiment [2] came out at 25 times. In experiment [3], the Ki stood at 30 nM. The same molecule came in with a Ki in experiment [4] of 8.1 nM. This molecule also registered a Ki in experiment [5] of 19 nM.

`O=C(CCCCCNC(=O)CC(c1ccccc1)(c1ccccc1)c1ccccc1)NC[C@H]1CCCN(CC2CCCCC2)C1` [Example 28, N-(6-{((3R)-1-cyclohexylmethyl-3-piperidyl)methyl}amino-6-oxohexyl)-3,3,3-triphenylpropanamide] came in with a Ki in experiment [1] of 130 nM. In experiment [2], the inhibitory constant (Ki) was 1.2 nM, the “Selectivity m1/m3” value is listed as 110 times, the “Selectivity m2/m3” value stood at 71 times and the “Selectivity m4/m3” value came out at 30 times. Moreover, the “Selectivity m5/m3” value in experiment [2] was determined as 180 times. Further, the inhibition constant Ki in experiment [3] was 85 nM. In addition, the Ki in experiment [4] is 36 nM. Also, in experiment [5], the affinity corresponds to a Ki of 220 nM.

For `CC[N+]1(CC)CCC[C@H](CNC(=O)[C@H]2CCCN2C(=O)[C@@H]2C[C@@H](O)CN2C(=O)CC(c2ccc(Cl)cc2)(c2ccc(Cl)cc2)c2ccc(Cl)cc2)C1.[Cl-]` [Example 144, (3R)-1,1-diethyl-3-({({(2R)-1-({(2S,4R)-4-hydroxy-1-{3,3,3-tris-(4-chlorophenyl)propanoyl}-2-pyrrolidinyl}carbonyl)-2-pyrrolidinyl}-carbonyl)amino}methyl)piperidinium chloride], the Ki turned out to be 110 nM in experiment [1]; 1.3 nM in experiment [2]; 110 nM in experiment [3]; 27 nM in experiment [4]; 230 nM in experiment [5]. In addition, the “Selectivity m1/m3” value in experiment [2] is listed as 85 times. Moreover, in experiment [2], the “Selectivity m2/m3” value is 85 times. In addition, the “Selectivity m4/m3” value in experiment [2] is on record as 21 times. Also, the “Selectivity m5/m3” value in experiment [2] is given as 180 times.

The molecule `CCCCCCC[N+]1(C)CCC[C@H](CNC(=O)CCNC(=O)CNC(=O)CC(c2ccccc2)(c2ccccc2)c2ccccc2)C1.[Br-]` (stereo partly drawn) [Example 146, (3R)-1-heptyl-1-methyl-3-({(3-{(2-{(3,3,3-triphenylpropanoyl)amino}acetyl)amino}propanoyl)amino}methyl)piperidinium bromide] yielded a Ki in experiment [1] of 1200 nM. Further, in experiment [2], the Ki amounted to 15 nM, the “Selectivity m1/m3” value amounted to 80 times, the “Selectivity m2/m3” value was 67 times and the “Selectivity m4/m3” value turned out to be 24 times. Also, in experiment [2], the “Selectivity m5/m3” value is 33 times. The molecule further registered a Ki in experiment [3] of 1000 nM. In addition, the Ki in experiment [4] was 360 nM. In experiment [5], this molecule came in with a Ki of 490 nM.

By Ki is commonly meant a measure of affinity in units of concentration, obtained from inhibition or displacement. Low values mean higher affinity, high ones lower affinity.
